In the supplement of paper PMC10627819:

Experiments:
B. subtilis 168 [1] = assay: fitness (endpoint OD595 vs no drug) (fraction); higher = more growth
Outline: (§1)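 Cultures at OD595 0.01 were dispensed into 384-well plates in TSB, LB Lennox or CY and incubated at 37 °C. Every 30 min for 14 h, OD595 was read and corrected by the first reading. Fitness is the optical density at entry into stationary phase relative to the robust mean of no-drug control wells, capped at 1.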

S. pneumoniae D39V [2] = assay: as above
Outline: as §1

B. subtilis 168 [3] = assay: Bliss interaction score (quartile over a dose matrix) (fitness difference); higher = more antagonism (negative = synergy)
Outline: (§2)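 The Bliss score subtracts expected fitness, the product of the single-drug fitness values, from observed fitness. Fitness is plate-normalised OD595 at entry into stationary phase, relative to the robust no-drug mean and capped at 1, with single-drug fitness inferred from combinations. Summaries are quartiles over technical, biological and donor/recipient replicates.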

S. aureus DSM 20231 = assay: as above
Outline: as §2

S. aureus Newman = assay: as above
Outline: as §2

S. pneumoniae D39V [4] = assay: as above
Outline: as §2
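Wherever Bliss interaction score (quartile over a dose matrix) is given: first quartile when negative (synergy) and third quartile when positive (antagonism).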

C[C@H]1COc2c(N3CCN(C)CC3)c(F)cc3c(=O)c(C(=O)O)cn1c23 [Levofloxacin] + CCN(CC)CCOC(=O)c1ccc(N)cc1 [Procaine]
fitness, one replicate
Conditions | first compound 0.001 µg/mL | first compound 0.002 µg/mL | first compound 0.0039 µg/mL | first compound 0.2 µg/mL | first compound 0.4 µg/mL | first compound 0.8 µg/mL
B. subtilis 168 [1], partner 85.5 µg/mL | 0.882 | 0.83 | 0.861 | – | – | –
B. subtilis 168 [1], partner 171 µg/mL | 0.923 | 0.824 | 0.869 | – | – | –
B. subtilis 168 [1], partner 342 µg/mL | 0.912 | 0.849 | 0.872 | – | – | –
S. pneumoniae D39V [2], partner 85.5 µg/mL | – | – | – | 0.924 | 0.815 | 0.372
S. pneumoniae D39V [2], partner 171 µg/mL | – | – | – | ≥ 1 | 0.853 | 0.49
S. pneumoniae D39V [2], partner 342 µg/mL | – | – | – | 0.923 | 0.86 | 0.501

fitness
Conditions | first compound 0.0312 µg/mL | first compound 0.0625 µg/mL | first compound 0.125 µg/mL | first compound 0.1725 µg/mL | first compound 0.345 µg/mL | first compound 0.69 µg/mL
B. subtilis 168 [1], partner 85.5 µg/mL | 0.0534 | 0.0358 | 0.0491 | – | – | –
B. subtilis 168 [1], partner 171 µg/mL | 0.0369 | 0.0387 | 0.0458 | – | – | –
B. subtilis 168 [1], partner 342 µg/mL | 0.0441 | 0.0408 | 0.0398 | – | – | –
S. pneumoniae D39V [2], partner 85.5 µg/mL | – | – | – | 0.937 | 0.878 | 0.602
S. pneumoniae D39V [2], partner 171 µg/mL | – | – | – | 0.946 | 0.87 | 0.62
S. pneumoniae D39V [2], partner 342 µg/mL | – | – | – | 0.918 | 0.877 | 0.625

Conditions | Bliss interaction score
B. subtilis 168 [3] | -0.0156
S. aureus DSM 20231 | -0.108
S. aureus Newman | 0.108
S. pneumoniae D39V [4] | 0.053

C[C@H]1COc2c(N3CCN(C)CC3)c(F)cc3c(=O)c(C(=O)O)cn1c23 [Levofloxacin] + CN1C2=CC=CC=C2N=C3C1=CC=CC3=O [Pyocyanin]
fitness, one replicate
Conditions | first compound 0.001 µg/mL | first compound 0.002 µg/mL | first compound 0.0039 µg/mL | first compound 0.2 µg/mL | first compound 0.4 µg/mL | first compound 0.8 µg/mL
B. subtilis 168 [1], partner 1.25 µg/mL | 0.891 | 0.8 | 0.846 | – | – | –
B. subtilis 168 [1], partner 2.5 µg/mL | 0.864 | 0.813 | 0.795 | – | – | –
B. subtilis 168 [1], partner 5 µg/mL | 0.68 | 0.621 | 0.64 | – | – | –
S. pneumoniae D39V [2], partner 0.325 µg/mL | – | – | – | 0.878 | 0.371 | 0.296
S. pneumoniae D39V [2], partner 0.65 µg/mL | – | – | – | 0.965 | 0.875 | 0.679

fitness
Conditions | first compound 0.0312 µg/mL | first compound 0.0625 µg/mL | first compound 0.125 µg/mL | first compound 0.1725 µg/mL | first compound 0.345 µg/mL | first compound 0.69 µg/mL
B. subtilis 168 [1], partner 1.25 µg/mL | 0.0394 | 0.0289 | 0.03 | – | – | –
B. subtilis 168 [1], partner 2.5 µg/mL | 0.0377 | 0.0408 | 0.0364 | – | – | –
B. subtilis 168 [1], partner 5 µg/mL | 0.0364 | 0.0433 | 0.0258 | – | – | –
S. pneumoniae D39V [2], partner 0.325 µg/mL | – | – | – | 0.988 | 0.936 | 0.668
S. pneumoniae D39V [2], partner 0.65 µg/mL | – | – | – | 0.958 | 0.896 | 0.596
S. pneumoniae D39V [2], partner 1.3 µg/mL | – | – | – | 0.782 | 0.74 | 0.459

Conditions | Bliss interaction score
B. subtilis 168 [3] | -0.0161
S. aureus DSM 20231 | 0.0335
S. aureus Newman | -0.0335
S. pneumoniae D39V [4] | 0.0846
